pIC50: −log10 of the molar value.
Key:
[1] = biological target: T1, c-Met (Homo sapiens, UniProt P08581); assay: c-Met enzyme inhibitory activity (32P-ATP, SDS-PAGE); type: biochemical; design: purchased upstate 14-526
Experimental: (§1) c-Met protein (upstate, Lot: 25735AU, catalog code 14-526) was diluted with EDB (20 mM MOPS (pH 7.0), 1 mM EDTA, 0.01% Brij 35, 5% glycerol, 0.1% β-mercaptoethanol, and 1 mg/ml BSA) to 10 ng/μl. The KDR protein (812-1346AA) was prepared from SF21 insect cells (affinity purification, 12.4 μg/μl) according to the protocol of Invitrogen (Bac to Bac (tradename) baculovirus expression system) and was diluted with EDB to 248 ng/μl. A five-fold concentration of a reaction buffer (40 mM MOPS (pH 7.4), 1 mM EDTA) (5 μl), a ten-fold concentration of compound A (5 μl), 250 mM MnCl2 (2.5 μl), sterilized distilled water (2.5 μl), c-Met protein or KDR protein (5 μl) was mixed thereinto under ice cooling. An ATP reaction solution (25 mM ATP, 10 μci/μl γ-^32P-ATP (1 μl), 25 mM Mg (OAc)2, and 1.25 mM Hepes (pH7.4)) (10 μl) was added, and the mixture was allowed to react at 37° C. for 10 min. A tris-SDS β-ME sample treatment liquid (301780, Daiichi Kagaku Inc.) (10 μl) was added to stop the reaction. The reaction solution was boiled at 95° C. for 5 min and was then subjected to SDS-PAGE. The gel after the migration was packed, and an imaging plate (Fuji Film) was applied to the gel for transfer, followed by analysis with Typhoon (Amersham Biosciences). The IC50 value was calculated with a software for analysis Graph Pad Prism Ver.4 (Graph Pad Software, Inc.).
Target sequence in this assay (P08581 974-1390 limits assumed): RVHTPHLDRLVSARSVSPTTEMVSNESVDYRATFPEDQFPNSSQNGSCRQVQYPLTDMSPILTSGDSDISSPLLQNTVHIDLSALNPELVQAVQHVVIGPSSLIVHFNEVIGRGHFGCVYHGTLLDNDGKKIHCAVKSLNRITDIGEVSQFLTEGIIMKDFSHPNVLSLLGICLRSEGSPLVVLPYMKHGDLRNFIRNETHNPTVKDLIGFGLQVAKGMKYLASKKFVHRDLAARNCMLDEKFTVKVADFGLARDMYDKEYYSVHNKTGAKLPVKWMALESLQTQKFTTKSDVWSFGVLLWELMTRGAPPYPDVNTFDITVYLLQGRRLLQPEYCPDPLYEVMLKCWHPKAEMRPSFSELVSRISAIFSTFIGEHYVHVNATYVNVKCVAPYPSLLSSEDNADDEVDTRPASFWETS

[2] = biological target: T2, KDR (Homo sapiens, UniProt P35968); assay: KDR autophosphorylation inhibition in HUVEC, VEGF stimulated; type: cell-based; design: endogenous in cells; host or cells: HUVEC; settings: 50 ng/ml VEGF
Source text: (§2) MKN45 (human poorly differentiated gastric cancer cell line, Riken) and A431 (human epithelioid cancer cell line, JCRB) were used for the measurement of c-Met autophosphorylation inhibition, and HUVEC (human vascular endothelial cells, KURABO INDUSTRIES LTD.) was used for the measurement of KDR autophosphorylation inhibitory activity.
HUVEC was inoculated into an EGM medium (KURABO INDUSTRIES LTD.) so that the number of cells was 2×10^6/100-mm Petri dish (Collagen coated Dish, 4020-010, IWAKI), and, 24 hr after the inoculation, the EGM medium was replace with an EBM medium containing 0.5% fetal calf serum (KURABO INDUSTRIES LTD.). Compound A was added, and the mixture was incubated for 90 min. After stimulation with 50 ng/ml of VEGF (100-20, PeproTech, Inc.) for 5 min, the culture was removed. The residue was subjected to immunoprecipitation with a KDR antibody (Flk-1, C-1158, Santa Cruz) by the above c-Met autophosphorylation inhibitory activity measuring method, followed by SDS-PAGE to measure KDR autophosphorylation inhibitory activity.
Target sequence in this assay (P35968 20-1356): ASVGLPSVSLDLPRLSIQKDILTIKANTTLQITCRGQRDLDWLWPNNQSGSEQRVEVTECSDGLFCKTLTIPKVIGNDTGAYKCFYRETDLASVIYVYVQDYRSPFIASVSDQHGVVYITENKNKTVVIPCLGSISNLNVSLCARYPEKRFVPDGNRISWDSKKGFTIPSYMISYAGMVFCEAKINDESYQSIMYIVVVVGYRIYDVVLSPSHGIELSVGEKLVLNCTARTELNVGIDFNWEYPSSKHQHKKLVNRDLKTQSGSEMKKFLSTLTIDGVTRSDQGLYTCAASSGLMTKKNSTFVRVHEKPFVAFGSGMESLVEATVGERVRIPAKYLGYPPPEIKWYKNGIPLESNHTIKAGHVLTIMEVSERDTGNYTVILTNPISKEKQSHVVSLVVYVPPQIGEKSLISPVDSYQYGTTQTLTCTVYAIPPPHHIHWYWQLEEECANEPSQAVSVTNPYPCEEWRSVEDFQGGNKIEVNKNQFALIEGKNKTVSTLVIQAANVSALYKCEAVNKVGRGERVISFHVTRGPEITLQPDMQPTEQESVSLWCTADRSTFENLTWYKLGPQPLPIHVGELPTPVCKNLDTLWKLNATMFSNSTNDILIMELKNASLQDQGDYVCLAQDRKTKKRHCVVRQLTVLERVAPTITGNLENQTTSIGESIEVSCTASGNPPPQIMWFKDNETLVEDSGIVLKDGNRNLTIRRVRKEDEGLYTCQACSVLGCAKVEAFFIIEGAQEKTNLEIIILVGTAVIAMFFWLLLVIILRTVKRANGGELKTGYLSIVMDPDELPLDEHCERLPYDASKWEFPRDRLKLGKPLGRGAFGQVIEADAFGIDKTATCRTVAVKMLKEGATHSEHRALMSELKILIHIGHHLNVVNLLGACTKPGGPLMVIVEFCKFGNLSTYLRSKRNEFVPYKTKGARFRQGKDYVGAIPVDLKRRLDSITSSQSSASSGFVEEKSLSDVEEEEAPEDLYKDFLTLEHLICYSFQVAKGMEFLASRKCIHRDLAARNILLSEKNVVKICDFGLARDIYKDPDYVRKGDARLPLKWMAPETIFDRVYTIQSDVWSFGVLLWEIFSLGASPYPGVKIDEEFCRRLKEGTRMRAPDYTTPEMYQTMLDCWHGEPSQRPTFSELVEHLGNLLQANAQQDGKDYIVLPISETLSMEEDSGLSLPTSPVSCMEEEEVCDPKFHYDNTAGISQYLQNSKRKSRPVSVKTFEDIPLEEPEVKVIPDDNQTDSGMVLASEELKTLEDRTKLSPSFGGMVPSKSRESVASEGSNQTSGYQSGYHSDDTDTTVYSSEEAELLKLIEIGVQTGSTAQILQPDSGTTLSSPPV

[3] = biological target: T1, c-Met; assay: c-Met autophosphorylation inhibitory activity (general statement)
Target sequence in this assay (P08581 25-1390): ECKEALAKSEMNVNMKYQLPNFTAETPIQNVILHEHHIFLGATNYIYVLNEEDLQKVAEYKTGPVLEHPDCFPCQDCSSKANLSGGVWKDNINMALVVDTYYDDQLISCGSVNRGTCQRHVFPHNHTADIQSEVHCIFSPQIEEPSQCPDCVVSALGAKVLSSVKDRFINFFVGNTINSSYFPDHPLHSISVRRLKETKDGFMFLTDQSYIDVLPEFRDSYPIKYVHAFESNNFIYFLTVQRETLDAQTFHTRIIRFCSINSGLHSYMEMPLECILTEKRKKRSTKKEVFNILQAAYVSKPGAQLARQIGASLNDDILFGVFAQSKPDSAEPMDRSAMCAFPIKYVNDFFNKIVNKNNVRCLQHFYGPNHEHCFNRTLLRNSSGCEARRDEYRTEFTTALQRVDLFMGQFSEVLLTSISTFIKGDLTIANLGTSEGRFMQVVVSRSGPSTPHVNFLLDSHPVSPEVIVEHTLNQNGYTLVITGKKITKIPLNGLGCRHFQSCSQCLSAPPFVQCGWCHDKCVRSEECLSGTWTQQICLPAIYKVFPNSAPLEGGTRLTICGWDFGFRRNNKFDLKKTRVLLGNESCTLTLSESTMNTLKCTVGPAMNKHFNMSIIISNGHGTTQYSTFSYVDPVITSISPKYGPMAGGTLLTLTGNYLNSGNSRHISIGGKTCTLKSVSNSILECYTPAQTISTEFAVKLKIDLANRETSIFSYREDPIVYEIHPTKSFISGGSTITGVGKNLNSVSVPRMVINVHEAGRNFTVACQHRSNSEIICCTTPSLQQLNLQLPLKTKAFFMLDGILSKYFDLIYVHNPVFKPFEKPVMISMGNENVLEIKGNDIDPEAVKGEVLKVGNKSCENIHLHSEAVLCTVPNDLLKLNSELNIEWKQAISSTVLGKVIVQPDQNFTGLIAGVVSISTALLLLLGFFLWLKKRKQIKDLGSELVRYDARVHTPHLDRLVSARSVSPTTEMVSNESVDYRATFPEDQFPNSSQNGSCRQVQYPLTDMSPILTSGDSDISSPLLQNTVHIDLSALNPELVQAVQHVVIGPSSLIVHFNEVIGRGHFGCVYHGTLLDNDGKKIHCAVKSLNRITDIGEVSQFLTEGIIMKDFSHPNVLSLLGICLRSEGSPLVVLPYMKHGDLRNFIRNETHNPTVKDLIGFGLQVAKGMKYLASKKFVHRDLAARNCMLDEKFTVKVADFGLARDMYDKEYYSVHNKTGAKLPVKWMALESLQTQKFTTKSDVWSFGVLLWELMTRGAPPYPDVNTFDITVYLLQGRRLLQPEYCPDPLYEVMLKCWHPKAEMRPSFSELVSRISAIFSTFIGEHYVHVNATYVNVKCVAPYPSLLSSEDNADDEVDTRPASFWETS

[4] = biological target: T1, c-Met; assay: c-Met autophosphorylation inhibition in culture cells MKN45 (immunoprecipitation/blot); type: cell-based; design: endogenous in cells; host or cells: MKN45
Source text: as §2
(§3) MKN45 (2.5×10^5/well) or A431 (8.5×10^5/well) was inoculated into wells, containing RPMI (GIBCO) containing 0.1% fetal calf serum (JRH Biosciences), in a 6-well plate (Collagen Type I coated Plate, 4810-010, IWAKI), and, 24 hr after the inoculation, the medium was replaced with an RPMI medium containing 0.10% fetal calf serum. Thereafter, compound A was added, followed by incubation for 90 min under conditions of 37° C. and 5% CO2. The culture was removed without stimulation for MKN45 and after stimulation for 10 min with 50 ng/ml HGF (294-HG, R&D SYSTEMS) for A431. A solubilizing buffer solution (20 mM HEPES (pH 7.4), 150 mM NaCl, 0.2% TritonX-100, […], 5 mM sodium orthovanadylate, 5 mM disodium ethylenediaminetetraacetate, and 2 mM Na4P2O7) (500 μl/well) was added to satisfactorily solubilize the cells. […] The film was quantified by Scion Image, and the IC50 value was determined with an analysis software Graph Pad Prism Ver.4 (Graph Pad Software, Inc.).
Target sequence in this assay (P08581 25-1390): as above

[5] = Human liver microsome test; type: in vitro ADME; settings: data not shown
[6] = biological target: T2, KDR; assay: KDR autophosphorylation inhibitory activity (general statement)
Target sequence in this assay (P35968 20-1356): as the sequence (P35968 20-1356) above

[7] = tested on: Human gastric cancer cell line NU-GC-4; assay: Tumor growth inhibitory activity against human gastric cancer cell line NU-GC-4 in nude mice; type: in vivo; settings: 25 mg/kg oral once a day, 10th day
Experimental: Human gastric cancer cell line NU-GC-4 (available from Cell Resource Center for Biomedical Research, Institute of Development Aging and Cancer, Tohoku University) is transplanted into nude mice. When the tumor volume becomes about 100 mm^3, the mice are grouped so that the groups each consist of four mice and have an even average tumor volume. The test compound suspended in 0.5% methylcellulose is orally administered once a day for 9 days.
Only 0.5% methylcellulose is administered to the control group in the same manner as in the test groups. The tumor growth inhibition rate (TGIR) is calculated as follows: The tumor growth inhibition rate (TGIR)=(1−TX/CX)×100 wherein CX represents the volume of tumor at day X for the control group and TX represents the volume of tumor for test compound administration groups, when the tumor volume at the day of the start of the administration is presumed to be 1.

[8] = biological target: T1, c-Met; assay: c-Met autophosphorylation inhibition in culture cells A431, HGF stimulated (immunoprecipitation/blot); type: cell-based; design: endogenous in cells; settings: 50 ng/ml HGF
Source text: as §2, §3
Target sequence in this assay (P08581 25-1390): as the sequence (P08581 25-1390) above

[9] = tested on: mouse lower limb bone growth plate; assay: Influence on mouse lower limb bone growth plate; type: in vivo; settings: nude mice, 50 mg/kg oral once a day for 4 weeks
Experimental: Nude mice (BALB-nu/nu, female, four weeks old, Charles River Japan, Inc.) were preliminarily raised for one week, and the mice were grouped so that each group consisted of 8 mice. Compound A (50 mg/kg) suspended in 0.5% methylcellulose was orally administered once a day for 4 weeks to the compound A group. On the other hand, 0.5% methylcellulose was administered to the control group in the same manner as in the compound A group.
On the 29th day after the initiation of the administration, the animals were killed from ether anesthesia. A lower limb bone around the knee region was removed, was fixed in buffer formalin, was deashed and was then subjected to paraffin embedding. A thin sliced sample was dyed with HE, and the knee bone was photographed, and whether or not thickening of the bone growth plate occurs was quantitatively determined with an image analysis software (WinROOF Ver5, MITANI CORPORATION).

[10] = biological target: T2, KDR; assay: KDR enzyme inhibitory activity (32P-ATP, SDS-PAGE); type: biochemical; design: The KDR protein (812-1346AA) was prepared from SF21 insect cells; made in house; host or cells: SF21 insect cells (Bac to Bac baculovirus system)
Experimental: as §1
Target sequence in this assay (P35968 812-1346): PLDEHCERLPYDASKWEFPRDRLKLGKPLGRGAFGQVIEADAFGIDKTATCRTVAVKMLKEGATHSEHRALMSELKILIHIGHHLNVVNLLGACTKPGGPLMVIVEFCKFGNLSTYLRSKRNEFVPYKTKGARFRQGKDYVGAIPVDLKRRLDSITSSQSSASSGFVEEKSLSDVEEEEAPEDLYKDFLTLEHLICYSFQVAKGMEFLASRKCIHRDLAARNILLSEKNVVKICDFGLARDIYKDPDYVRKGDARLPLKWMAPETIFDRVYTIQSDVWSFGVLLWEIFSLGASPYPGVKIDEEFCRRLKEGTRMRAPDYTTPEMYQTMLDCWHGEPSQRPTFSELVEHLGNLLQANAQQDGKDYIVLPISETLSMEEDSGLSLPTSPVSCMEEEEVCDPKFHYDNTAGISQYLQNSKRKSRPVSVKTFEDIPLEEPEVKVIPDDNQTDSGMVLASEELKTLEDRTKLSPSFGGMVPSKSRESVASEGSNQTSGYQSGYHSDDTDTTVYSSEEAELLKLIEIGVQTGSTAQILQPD

COc1cc(Oc2ccnc3cc(OC)c(OC)cc23)ccc1NC(=S)NC(=O)Cc1ccc(F)cc1 [Compound A, N-[4-{(6,7-dimethoxy-4-quinolyl)oxy}-2-methoxyphenyl]-N′-[2-(4-fluorophenyl)acetyl]thiourea]
pIC50 [1]: 7.81
pIC50 [2]: ≤ 6.00
c-Met autophosphorylation inhibitory activity [3]: high
pIC50 ([4]; c-Met (MKN45), without stimulation): 7.95
c-Met/KDR selectivity ([4]; c-Met versus KDR autophosphorylation in culture cells): high
metabolic rate [5]: proper metabolic rate
KDR autophosphorylation inhibitory activity [6]: low
TGIR (tumor growth inhibition rate) [7]: 78%
pIC50 [8]: 8.03
thickening of the bone growth plate [9]: did not induce the thickening of the bone growth plate
bone growth plate area ([9]; versus control group): no significant difference
pIC50 [10]: ≤ 6.00
